{"source": "PubChem BioAssay AID449745", "about": "(Broad Institute, 2010)", "note": "Inconclusive results are not listed. Calls of active or inactive are those of the source. How the calls were made is not given here.", "data": [{"target": "Zinc finger protein mex-5 (Caenorhabditis elegans) (UniProt Q9XUB2)", "sequence (Q9XUB2 whole entry, looked up)": "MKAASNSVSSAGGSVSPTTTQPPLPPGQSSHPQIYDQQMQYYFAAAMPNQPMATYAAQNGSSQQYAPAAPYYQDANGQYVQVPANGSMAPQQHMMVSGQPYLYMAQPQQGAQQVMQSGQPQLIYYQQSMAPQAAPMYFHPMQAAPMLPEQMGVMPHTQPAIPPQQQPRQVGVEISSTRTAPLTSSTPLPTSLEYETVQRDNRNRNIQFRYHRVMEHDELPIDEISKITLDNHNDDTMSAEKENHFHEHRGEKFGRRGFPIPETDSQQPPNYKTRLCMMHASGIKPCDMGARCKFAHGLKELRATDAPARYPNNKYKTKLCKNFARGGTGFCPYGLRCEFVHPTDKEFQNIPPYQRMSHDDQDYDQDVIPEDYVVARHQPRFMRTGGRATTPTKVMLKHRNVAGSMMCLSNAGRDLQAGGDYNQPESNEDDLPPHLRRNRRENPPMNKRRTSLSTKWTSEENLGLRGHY", "assay": "MEX-5 RNA-binding inhibition confirmation – biochemical, C. elegans, fluorescence polarization, dose retest (AID 449745);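 further: potency is for blocking Mex-5 binding to labeled TCR2 RNA like unlabeled competitor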", "conditions": "Mex-5 / TCR-2 RNA binding", "values": [{"smiles": "O=C(N/N=C/C1C(=O)NC(=S)N(c2ccccc2)C1=O)c1cc(Br)c(O)c(Br)c1", "note": "(stereo not given)", "AC50": "13 µM"}, {"smiles": "Cc1oc2c(cc(NS(=O)(=O)c3ccc(C(C)C)cc3)c3ccccc32)c1C(=O)O", "AC50": "5.37 µM"}, {"smiles": "O=C(c1ccc(Cl)cc1)C1C2C(=O)N(c3ccccc3)C(=O)C2C2CCCN21", "note": "(stereo not given)", "AC50": "19.8 µM"}, {"smiles": "CCN1C/C(=C/c2ccc(OC)c(O)c2)C(=O)/C(=C/c2ccc(OC)c(O)c2)C1", "AC50": "> 38 µM (inactive)"}, {"smiles": "Cc1ccccc1Nc1cc2ccccc2c(=O)[nH]1", "AC50": "14.3 µM"}, {"smiles": "CCN1CCc2c(sc(N)c2C(N)=O)C1", "AC50": "37.4 µM"}, {"smiles": "O=C(CCCN1C(=O)/C(=C/c2ccccc2Cl)SC1=S)NNC(=O)c1ccc(Cl)cc1", "AC50": "> 38 µM (inactive)"}, {"smiles": "Cc1ccccc1C(=O)N=c1ccn(-c2nc3ccccc3nc2NS(=O)(=O)c2ccccc2)cc1", "AC50": "> 38 µM (inactive)"}, {"smiles": "CN1CCN(c2ccc([N+](=O)[O-])c3no[n+]([O-])c23)CC1", "AC50": "33.4 µM"}, {"smiles": "CN1C(=O)C(=Cc2sc(=O)n(-c3ccccc3)c2N(C)C)C(=O)N(C)C1=O", "AC50": "> 38 µM (inactive)"}, {"smiles": "Cc1[nH][nH]c(=O)c1C(c1ccc(O)c([N+](=O)[O-])c1)c1c(C)[nH][nH]c1=O", "AC50": "8.52 µM"}, {"smiles": "Oc1ccc(N=Nc2n[nH]c(-c3ccccc3)n2)cc1", "AC50": "4.21 µM"}, {"smiles": "CCCCOc1ccc2c(c1)/C(=C(\\C(Cl)=C(Cl)Cl)[N+](=O)[O-])N2", "AC50": "14.2 µM"}, {"smiles": "COCCCNC(=O)c1ccc2c3c(onc13)-c1ccccc1C2=O", "AC50": "< 0.3 µM"}, {"smiles": "CCOC(=O)c1ccc(N=Nc2c(C)c(C#N)c(O)[nH]c2=O)cc1", "AC50": "13.3 µM"}, {"smiles": "Cc1ccnc(N2C(=O)c3cccc4c([N+](=O)[O-])ccc(c34)C2=O)c1", "AC50": "14.8 µM"}, {"smiles": "Cc1ccc(C(=O)N/N=C\\c2cc(Br)c(Br)o2)cn1", "AC50": "39.7 µM"}, {"smiles": "CCOC(=O)c1c(/N=C/C2C(=O)NC(=S)NC2=O)sc2c1CCC2", "AC50": "12.8 µM"}, {"smiles": "COc1ccc(C(=O)C/C(=C\\C(=O)c2ccc(C)cc2)c2ccccc2)cc1", "AC50": "> 38 µM (inactive)"}, {"smiles": "Cc1ccc(C(=O)N/C(=C\\c2ccc(-c3ccc([N+](=O)[O-])cc3)o2)C(=O)NC2CCS(=O)(=O)C2)cc1", "note": "(stereo not given)", "AC50": "> 38 µM (inactive)"}, {"smiles": "Oc1sc(C=Nc2ccc(F)cc2)c2ccccc12", "AC50": "22.2 µM"}, {"smiles": "CN1/C(=C\\C=C2C(=O)NC(=O)NC2=O)C(C)(C)c2ccccc21", "AC50": "> 38 µM (inactive)"}, {"smiles": "COc1ccc(NC(=S)NNc2ccc(S(=O)(=O)Nc3ccccc3C(=O)O)cc2[N+](=O)[O-])cc1", "AC50": "6.28 µM"}, {"smiles": "Cc1ccc(N=C2NC(=O)/C(=C\\c3ccc(C)s3)S2)cc1", "AC50": "> 38 µM (inactive)"}, {"smiles": "O=C1C(Cl)=C(NC(=O)c2ccccc2)C(=O)C(Cl)=C1NC(=O)c1ccccc1", "AC50": "< 0.3 µM"}, {"smiles": "CC/C(=N/Nc1cccc(C)c1)c1cnnc(SC)n1", "AC50": "> 38 µM (inactive)"}, {"smiles": "CC1=C(C#N)C(=O)N(C2CCS(=O)(=O)C2)C(=O)/C1=C\\c1ccco1", "note": "(stereo not given)", "AC50": "3.22 µM"}, {"smiles": "O=C(/C=C/Nc1ccc(S(=O)(=O)Nc2cnc3ccccc3n2)cc1)c1ccccc1", "AC50": "> 38 µM (inactive)"}, {"smiles": "CC(C)(O)C(=O)NNC(=S)NCc1ccco1", "AC50": "4.16 µM"}, {"smiles": "O=C(O[C@@H]1OC2COC(=O)c3cc(O)c(O)c(O)c3-c3c(cc(O)c(O)c3O)C(=O)O[C@@H]([C@H]1O)[C@@H]2O)c1cc(O)c(O)c(O)c1", "AC50": "5.19 µM"}]}]}
